Source: ChEMBL document CHEMBL1123941, “Potential antisecretory antidiarrheals. 1. Alpha 2-adrenergic aromatic aminoguanidine hydrazones” (1988)
Activity calls are given as the source filed them. The rule behind the calls is not given here.

Tests used:
[1] = species: Rattus norvegicus; test: Inhibition of cholera toxin induced intestinal fluid secretion in rat; assay type: functional; details: read-out: ID50 (the source's name)
[2] = species: Oryctolagus cuniculus; test: Inhibition of increase in intestine potential difference caused by diarrhea-inducing secretagogues in rabbits using 'Using chamber'; Inactive; assay type: functional, organism-based
[3] = species: Oryctolagus cuniculus; test: Inhibition of increase in intestine potential difference caused by diarrhea-inducing secretagogues in rabbits using 'Using chamber'; Active at 1.0 x 10e-6 M; assay type: functional, organism-based
[4] = species: Rattus norvegicus; test: Inhibition of cholera toxin induced intestinal fluid secretion in rat; I= Inactive; assay type: functional, organism-based
[5] = species: Oryctolagus cuniculus; test: Inhibition of increase in intestine potential difference caused by diarrhea-inducing secretagogues in rabbits using 'Using chamber'; Active 1.0x 10e-6 M; assay type: functional, organism-based
[6] = species: Oryctolagus cuniculus; test: Inhibition of increase in intestine potential difference caused by diarrhea-inducing secretagogues in rabbits using ''Using chamber''; Active at 1.1 x 10e-5 M; assay type: functional, organism-based

## Cc1cccc(C)c1/C=N/NC1=NCCN1
[1]
  ED50: 7.9 mg/kg

## Cc1cc(C)c(/C=N/N=C(N)N)c(C)c1
[1]
  ED50: 16.6 mg/kg
[2]
  inhibition: inactive

## Cc1cccc(C)c1/C=N/N=C(N)N
[1]
  ED50: 1.6 mg/kg
[3]
  inhibition: Active at 1.0 x 10e-6 M

## Cc1ccc(N)cc1/C=N/N=C(N)N
[4]
  ID50: inactive

## N=C(N)N/N=C/c1c(Cl)cccc1Cl [GUANABENZ]
[1]
  ED50: 1.3 mg/kg
[5]
  inhibition: Active

## N=C(N)N/N=C1\CCCc2ccccc21
[1]
  ED50: 30.6 mg/kg
[2]
  inhibition: inactive

## N=C(N)N/N=C/c1cccc2ccccc12
[1]
  ED50: 34.6 mg/kg
[2]
  inhibition: inactive

## CC1CCc2ccccc2/C1=N/N=C(N)N (stereo unspecified)
[4]
  ID50: inactive

## N=C(N)N/N=C/c1ccnc2ccccc12
[4]
  ID50: inactive
[2]
  inhibition: inactive

## COc1ccc2c(c1)CCC/C2=N\N=C(N)N
[1]
  ED50: 20.5 mg/kg

## N=C(N)N/N=C1\CCc2ccccc21
[4]
  ID50: inactive

## C/C(=N\N=C(N)N)c1c(C)cccc1C
[6]
  inhibition: Active at 1.1 x 10e-5 M
[1]
  ED50: 13.3 mg/kg
[4]
  ID50: inactive
[2]
  inhibition: inactive

## N=C(N)N/N=C/c1ccc2ccccc2c1
[4]
  ID50: inactive
[2]
  inhibition: inactive

## Cc1ccccc1/C=N/N=C(N)N
[4]
  ID50: inactive
[2]
  inhibition: inactive

## Cc1cc(O)cc(C)c1/C=N/N=C(N)N
[1]
  ED50: 3.4 mg/kg
[2]
  inhibition: inactive

## COc1cc(C)c(/C=N/N=C(N)N)c(C)c1
[1]
  ED50: 27 mg/kg
[2]
  inhibition: inactive

## Cc1cc(/C=N/N=C(N)N)cc(C)c1O
[4]
  ID50: inactive
[2]
  inhibition: inactive

## Cc1c(N)cccc1/C=N/N=C(N)N
[4]
  ID50: inactive
[2]
  inhibition: inactive

## Cc1c(N)cc(N)c(C)c1/C=N/N=C(N)N
[4]
  ID50: inactive

## COc1cccc2c1CCC/C2=N\N=C(N)N
[4]
  ID50: inactive

## COc1ccc2c(c1)/C(=N/N=C(N)N)CCC2
[4]
  ID50: inactive
